Patent publication US10633407B2, “14-membered ketolides and methods of their preparation and use” (President and Fellows of Harvard College, priority 2014, dated 2020)
Values after ≈ are worked out from the molar mass of the structure shown.

How the values were obtained:
Experiment in all cases: CLSI broth dilution MIC determination
Format in all cases: cell-based
[1] = test system: P. aeruginosa MP-8 PAO1:mex (mex-oprM-deletion); conditions: Pseudomonas aeruginosa, PAO1
[2] = test system: P. aeruginosa MP-7 PAO1; conditions: Pseudomonas aeruginosa, read-out: MIC
[3] = test system: K. pneumoniae MP-548 clinical; conditions: Klebsiella pneumoniae, MP548CLINICAL, read-out: MIC
[4] = test system: K. pneumoniae MP-546 Clinical-MDR; conditions: Klebsiella pneumoniae, read-out: MIC
[5] = test system: K. pneumoniae ATCC 10031; conditions: Klebsiella pneumoniae, ATCC10031, K. pneumoniae ATCC 10031 (MP-14); read-out: MIC
[6] = test system: A. baumannii MP-576 Clinical-MDR; conditions: Acinetobacter baumannii, read-out: MIC
[7] = test system: A. baumannii MP-577 Clinical-AZT low; conditions: Acinetobacter baumannii, read-out: MIC
[8] = test system: E. coli MP-9 ATCC25922:tolC; conditions: Escherichia coli, ATCC25922
Text: (§1) MIC data was collected for the novel macrolides that this platform has produced against over 21 unique strains of B. subtilis, E. coli, S. aureus, S. pneumoniae, and H. influenzae, including several multidrug-resistant strains, with a special focus on macrolide resistant mechanisms (vide supra). Azithromycin (Azithro) and Solithromycin (Solithro) were included as a control macrolides in many cases. CLSI standard procedures for broth dilution MIC determination were used. […] These genotypes can be constitutive or inducible.

[9] = test system: S. aureus MP-17 ATCCBAA-977 (BAA 977 iErm); conditions: Staphylococcus aureus; S. aureus MP-17, ATCCBAA-977, iErm; read-out: MIC
Text: as §1

[10] = test system: S. aureus ATCC 29213; conditions: Staphylococcus aureus, ATCC29213; S. aureus ATCC 29213 (MP-12); read-out: MIC
Text: as §1

[11] = test system: S. aureus MRSA: USA300; conditions: Staphylococcus aureus; S. aureus MRSA: USA300 (MP-549, msr(a)); read-out: MIC
Text: as §1

[12] = test system: E. coli MP-541 clinical; conditions: Escherichia coli, MP541CLINICAL, read-out: MIC
Text: as §1

[13] = test system: E. coli MP-532 clinical-cErmB; conditions: Escherichia coli
Text: as §1

[14] = test system: S. aureus (MRSA) MP-513 ST-228 cErm (Clinical-cErm); conditions: Staphylococcus aureus, read-out: MIC
Text: as §1

[15] = test system: E. coli ATCC 25922; conditions: Escherichia coli, ATCC25922, E. coli ATCC 25922 (MP-4); read-out: MIC
Text: as §1

[16] = test system: P. aeruginosa ATCC 27853; conditions: Pseudomonas aeruginosa, ATCC27853; P. aeruginosa ATCC 27853 (MP-3); read-out: MIC
[17] = test system: A. baumannii ATCC 19606; conditions: Acinetobacter baumannii, ATCC19606; A. baumannii ATCC 19606 (MP-15); read-out: MIC

In the case of `CC[C@H]1OC(=O)[C@H](C)C(=O)[C@H](C)[C@@H](O[C@@H]2OC(C)CC(N(C)C)C2O)[C@](C)(OC)C[C@@H](C)C(=O)[C@H](C)[C@H]2N(NC/C=C/c3ccnc4ccccc34)C(=O)O[C@]12C` (stereo partly drawn) [FSM-140135], the MIC [1] is reported as 32 µg/mL (≈ 40.3 µM), the MIC [2] is reported as > 64 µg/mL and the MIC [3] is reported as > 64 µg/mL. For the same compound, the MIC [4] was > 64 µg/mL, the MIC [5] was 8 µg/mL (≈ 10.1 µM) and the MIC [6] was > 64 µg/mL. For the same compound, the MIC [7] was > 64 µg/mL, the MIC [8] was 16 µg/mL (≈ 20.1 µM) and the MIC [9] was 2 µg/mL (≈ 2.52 µM). For the same compound, the MIC [10] was 2 µg/mL (≈ 2.52 µM), the MIC [11] was 2 µg/mL (≈ 2.52 µM) and the MIC [12] was > 64 µg/mL. The MIC [13] was > 64 µg/mL, the MIC [14] was > 64 µg/mL and the MIC [15] was > 64 µg/mL. The MIC [16] was > 64 µg/mL and the MIC [17] was > 64 µg/mL.
In the case of `CC[C@H]1OC(=O)[C@@](C)(F)C(=O)[C@H](C)[C@@H](O[C@@H]2OC(C)CC(N(C)C)C2O)[C@](C)(OC)C[C@@H](C)C(=O)[C@H](C)[C@H]2N(CC#CCn3cc(-c4cc(F)nc(F)n4)nn3)C(=O)O[C@]12C` (stereo partly drawn) [FSM-22750], the MIC [1] is reported as > 64 µg/mL, the MIC [2] is reported as > 64 µg/mL and the MIC [3] is reported as > 64 µg/mL. The MIC [4] was > 64 µg/mL, the MIC [5] was > 64 µg/mL and the MIC [6] was > 64 µg/mL. The MIC [7] was > 64 µg/mL, the MIC [8] was > 64 µg/mL and the MIC [9] was 8 µg/mL (≈ 9.26 µM). The MIC [10] was 4 µg/mL (≈ 4.63 µM), the MIC [11] was 8 µg/mL (≈ 9.26 µM) and the MIC [12] was > 64 µg/mL. For the same compound, the MIC [13] was > 64 µg/mL, the MIC [14] was > 64 µg/mL and the MIC [15] was > 64 µg/mL. The MIC [16] was > 64 µg/mL and the MIC [17] was > 64 µg/mL.
For `CC[C@H]1OC(=O)[C@@](C)(F)C(=O)[C@H](C)[C@@H](O[C@@H]2OC(C)CC(N(C)C)C2O)[C@](C)(OC)C[C@@H](C)C(=O)[C@H](C)[C@H]2N(CC#CCn3cc(-c4cccc(F)n4)nn3)C(=O)O[C@]12C` (stereo partly drawn) [FSM-100627], the MIC [1] was 4 µg/mL (≈ 4.73 µM), the MIC [2] was 64 µg/mL (≈ 75.7 µM) and the MIC [3] was 32 µg/mL (≈ 37.9 µM). The MIC [4] was 64 µg/mL (≈ 75.7 µM), the MIC [5] was 2 µg/mL (≈ 2.37 µM) and the MIC [6] was > 64 µg/mL. For the same compound, the MIC [7] was 32 µg/mL (≈ 37.9 µM), the MIC [8] was 1 µg/mL (≈ 1.18 µM) and the MIC [9] was 0.06 µg/mL (≈ 0.071 µM). It also gave an MIC [10] of 0.06 µg/mL (≈ 0.071 µM), an MIC [11] of 0.125 µg/mL (≈ 0.148 µM) and an MIC [12] of 8 µg/mL (≈ 9.47 µM). For the same compound, the MIC [13] was > 64 µg/mL, the MIC [14] was 32 µg/mL (≈ 37.9 µM) and the MIC [15] was 16 µg/mL (≈ 18.9 µM). It also gave an MIC [16] of 64 µg/mL (≈ 75.7 µM) and an MIC [17] of 8 µg/mL (≈ 9.47 µM).
